Patent US20260256925A1, “INDAZOLE DERIVATIVES AS ESTROGEN RECEPTOR DEGRADERS” (REGENTS OF THE UNIVERSITY OF MICHIGAN, priority 2022, published 2026)

Molecular target: T1, ER (Homo sapiens, UniProt P03372)
T1 construct: endogenous in cells; probably T47D or MCF-7
T1 sequence (P03372 1-595): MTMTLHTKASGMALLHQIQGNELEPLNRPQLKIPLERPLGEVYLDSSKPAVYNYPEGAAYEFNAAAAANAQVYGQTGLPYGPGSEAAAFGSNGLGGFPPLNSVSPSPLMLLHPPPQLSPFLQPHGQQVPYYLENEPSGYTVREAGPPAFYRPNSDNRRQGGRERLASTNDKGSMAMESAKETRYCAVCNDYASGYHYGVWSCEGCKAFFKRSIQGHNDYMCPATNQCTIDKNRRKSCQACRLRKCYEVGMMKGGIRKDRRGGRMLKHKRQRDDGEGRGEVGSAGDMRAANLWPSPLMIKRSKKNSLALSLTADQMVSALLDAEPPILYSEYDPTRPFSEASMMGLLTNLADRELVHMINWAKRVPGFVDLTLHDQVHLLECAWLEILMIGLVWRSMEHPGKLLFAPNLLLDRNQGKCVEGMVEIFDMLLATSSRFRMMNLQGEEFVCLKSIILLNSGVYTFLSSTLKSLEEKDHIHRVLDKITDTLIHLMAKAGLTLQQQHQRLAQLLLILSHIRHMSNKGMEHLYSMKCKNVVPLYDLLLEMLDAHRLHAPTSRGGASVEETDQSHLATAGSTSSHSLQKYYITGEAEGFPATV
Experiment: Western blot analysis (compounds B1-B126)
Assay type: cell-based
Conditions: ER degradation, read-out: Traditional Western Degradation potency (DC50)
Description: Western Blot Analysis. The cells that are treated with the compounds are lysed in Radioimmunoprecipitation Assay Protein Lysis and Extraction Buffer (e.g., 25 mmol/L Tris.HCl, pH 7.6, 150 mmol/L NaCl, 1% Nonidet P-40, 1% sodium deoxycholate, and 0.1% sodium dodecyl sulfate) containing proteinase inhibitor cocktail. Equal amounts of total protein are electrophoresed through 10% SDS-polyacrylamide gels after determination of protein concentration by BCA assay. The separated protein bands are transferred onto PVDF membranes and blotted against different antibodies. The blots are scanned, and the band intensities are quantified (e.g., by using GelQuant.NET software provided by biochemlabsolutions.com). The relative mean intensity of target proteins is expressed after normalization to the intensity of glyceraldehyde-3-phosphate dehydrogenase bands.
Western Blot Analysis. Western blot analysis was performed essentially as described previously. The cells treated with indicated compounds were lysed in Radioimmunoprecipitation Assay Protein Lysis and Extraction Buffer (25 mmol/L Tris.HCl, pH 7.6, 150 mmol/L NaCl, 1% Nonidet P-40, 1% sodium deoxycholate, and 0.1% sodium dodecyl sulfate) containing proteinase inhibitor cocktail (Roche Diagnostics, Mannheim, Germany). Equal amounts of total protein were electrophoresed through 10% SDS-polyacrylamide gels after determination of protein concentration by BCA assay (Fisher Scientific, Pittsburgh, PA). The separated protein bands were transferred onto PVDF membranes (GE Healthcare Life Sciences, Marlborough, MA) and blotted against different antibodies, as indicated. The blots were scanned, and the band intensities were quantified using GelQuant.NET software provided by biochemlabsolutions.com. The relative mean intensity of target proteins was expressed after normalization to the intensity of glyceraldehyde-3-phosphate dehydrogenase bands.

Row | DC50 | Compound
1 | > 100 nM | C[C@@H]1Cc2c(ccc3[nH]ncc23)[C@@H](c2c(F)cc(N3CCC(CN4CCN5c6ccc7c(c6OC[C@@H]5C4)CN(C4CCC(=O)NC4=O)C7=O)CC3)cc2F)N1CC(F)F (stereo partly drawn) [Compound B105, 3-((S)-7-((1-(4-((6S,8R)-7-(2,2-difluoroethyl)-8-methyl-6,7,8,9-tetrahydro-3H-pyrazolo[4,3-f]isoquinolin-6-yl)-3,5-difluorophenyl)piperidin-4-yl)methyl)-1-oxo-1,3,5,5a,6,7,8,9-octahydro-2H-pyrazino[1′,2′:4,5][1,4]oxazino[2,3-e]isoindol-2-yl)piperidine-2,6-dione]
2 | > 100 nM | C[C@@H]1Cc2c(ccc3[nH]ncc23)[C@@H](c2c(F)cc(N3CCC(CN4CC5(Cc6cc7c(cc6C5)C(=O)N(C5CCC(=O)NC5=O)C7=O)C4)CC3)cc2F)N1CC(F)F (stereo partly drawn) [Compound B14, 1-((1-(4-((6S,8R)-7-(2,2-difluoroethyl)-8-methyl-6,7,8,9-tetrahydro-3H-pyrazolo[4,3-f]isoquinolin-6-yl)-3,5-difluorophenyl)piperidin-4-yl)methyl)-2′-(2,6-dioxopiperidin-3-yl)-5′,7′-dihydro-1′H-spiro[azetidine-3,6′-cyclopenta[f]isoindole]-1′,3′(2′H)-dione]
3 | > 100 nM | C[C@@H]1Cc2c(ccc3[nH]ncc23)[C@@H](c2c(F)cc(N3CCC(C(=O)N4C5CCC4CC(N4Cc6cc7c(cc6C4)C(=O)N(C4CCC(=O)NC4=O)C7=O)C5)CC3)cc2F)N1CC(F)F (stereo partly drawn) [Compound B103, 6-(8-(1-(4-((6S,8R)-7-(2,2-difluoroethyl)-8-methyl-6,7,8,9-tetrahydro-3H-pyrazolo[4,3-f]isoquinolin-6-yl)-3,5-difluorophenyl)piperidine-4-carbonyl)-8-azabicyclo [3.2.1]octan-3-yl)-2-(2,6-dioxopiperidin-3-yl)-6,7-dihydropyrrolo [3,4-f]isoindole-1,3(2H,5H)-dione]
4 | > 100 nM | C[C@@H]1Cc2c(ccc3[nH]ncc23)[C@@H](c2c(F)cc([C@H]3CC[C@H](C(=O)N4CC(CN5Cc6cc7c(cc6C5)C(=O)N(C5CCC(=O)NC5=O)C7=O)C4)CC3)cc2F)N1CC(F)F (stereo partly drawn) [Compound B3, 6-((1-((1S,4r)-4-(4-((6S,8R)-7-(2,2-difluoroethyl)-8-methyl-6,7,8,9-tetrahydro-3H-pyrazolo[4,3-f]isoquinolin-6-yl)-3,5-difluorophenyl)cyclohexane-1-carbonyl)azetidin-3-yl)methyl)-2-(2,6-dioxopiperidin-3-yl)-6,7-dihydropyrrolo[3,4-f]isoindole-1,3(2H,5H)-dione]
5 | < 10 nM | C[C@@H]1Cc2c(ccc3[nH]ncc23)[C@@H](c2c(F)cc([C@H]3CC[C@H](C(=O)N4CCC(N5Cc6cc7c(cc6C5)C(=O)N(C5CCC(=O)NC5=O)C7=O)CC4)CC3)cc2F)N1CC(F)F (stereo partly drawn) [Compound B2, 6-(1-((1S,4r)-4-(4-((6S,8R)-7-(2,2-difluoroethyl)-8-methyl-6,7,8,9-tetrahydro-3H-pyrazolo[4,3-f]isoquinolin-6-yl)-3,5-difluorophenyl)cyclohexane-1-carbonyl)pipcridin-4-yl)-2-(2,6-dioxopiperidin-3-yl)-6,7-dihydropyrrolo[3,4-f]isoindole-1,3(2H,5H)-dione]
6 | < 10 nM | C[C@@H]1Cc2c(ccc3[nH]ncc23)[C@@H](c2ccc(C3=CCC(C(=O)N4CCC(N5Cc6cc7c(cc6C5)C(=O)N(C5CCC(=O)NC5=O)C7=O)CC4)CC3)cn2)N1CC(F)(F)F (stereo partly drawn) [Compound B11, 2-(2,6-dioxopiperidin-3-yl)-6-(1-(4-(6-((6S,8R)-8-methyl-7-(2,2,2-trifluoroethyl)-6,7,8,9-tetrahydro-3H-pyrazolo[4,3-f]isoquinolin-6-yl)pyridin-3-yl)cyclohex-3-ene-1-carbonyl)piperidin-4-yl)-6,7-dihydropyrrolo[3,4-f]isoindole-1,3(2H,5H)-dione]
7 | 10 to 100 nM | C[C@@H]1Cc2c(ccc3[nH]ncc23)[C@@H](c2ccc(C3CCC(C(=O)N4CCC(N5Cc6cc7c(cc6C5)C(=O)N(C5CCC(=O)NC5=O)C7=O)CC4)CC3)cn2)N1CC(F)(F)F (stereo partly drawn) [Compound B10, 2-(2,6-dioxopiperidin-3-yl)-6-(1-(4-(6-((6S,8R)-8-methyl-7-(2,2,2-trifluoroethyl)-6,7,8,9-tetrahydro-3H-pyrazolo[4,3-f]isoquinolin-6-yl)pyridin-3-yl)cyclohexane-1-carbonyl)piperidin-4-yl)-6,7-dihydropyrrolo[3,4-f]isoindole-1,3(2H,5H)-dione]
8 | < 10 nM | COc1c2c(cc3c1C(=O)N(C1CCC(=O)NC1=O)C3=O)CN(CC(=O)N1CCC3(CC1)CCN(c1cc(F)c([C@@H]4c5ccc6[nH]ncc6c5C[C@@H](C)N4CC(F)F)c(F)c1)CC3)C2 (stereo partly drawn) [Compound B17, 6-(2-(9-(4-((6S,8R)-7-(2,2-difluoroethyl)-8-methyl-6,7,8,9-tetrahydro-3H-pyrazolo[4,3-f]isoquinolin-6-yl)-3,5-diazaspiro[5.5]undecan-3-yl)-2-difluorophenyl)-3,9-oxoethyl)-2-(2,6-dioxopiperidin-3-yl)-4-methoxy-6,7-dihydropyrrolo[3,4-f]isoindole-1,3(2H,5H)-dione]
9 | < 10 nM | C[C@@H]1Cc2c(ccc3[nH]ncc23)[C@@H](c2c(F)cc(N3CCC(CN4CCC(N5Cc6cc7c(cc6C5=O)CN(C5CCC(=O)NC5=O)C7=O)CC4)CC3)cc2F)N1CC(F)F (stereo partly drawn) [Compound B19, 2-(1-((1-(4-((6S,8R)-7-(2,2-difluoroethyl)-8-methyl-6,7,8,9-tetrahydro-3H-pyrazolo[4,3-f]isoquinolin-6-yl)-3,5-difluorophenyl)piperidin-4-yl)methyl)piperidin-4-yl)-6-(2,6-dioxopiperidin-3-yl)-2,3,6,7-tetrahydropyrrolo[3,4-f]isoindole-1,5-dione]
10 | 10 to 100 nM | C[C@@H]1Cc2c(ccc3[nH]ncc23)[C@@H](c2c(F)cc(N3CCC4(CCN(C(=O)CN5Cc6cc7c(cc6C5)C(=O)N(C5CCC(=O)NC5=O)C7=O)CC4)C3)cc2F)N1CC(F)F (stereo partly drawn) [Compound B12, 6-(2-(2-(4-((6S,8R)-7-(2,2-difluoroethyl)-8-methyl-6,7,8,9-tetrahydro-3H-pyrazolo[4,3-f]isoquinolin-6-yl)-3,5-difluorophenyl)-2,8-diazaspiro[4.5]decan-8-yl)-2-oxoethyl)-2-(2,6-dioxopiperidin-3-yl)-6,7-dihydropyrrolo[3,4-f]isoindole-1,3(2H,5H)-dione]
11 | > 100 nM | C[C@@H]1Cc2c(ccc3[nH]ncc23)[C@@H](c2c(F)cc(C3CCN(C(=O)[C@H]4CC[C@H](N5Cc6cc7c(cc6C5)C(=O)N(C5CCC(=O)NC5=O)C7=O)CC4)CC3)cc2F)N1CC(F)F (stereo partly drawn) [Compound B7, 6-((1S,4r)-4-(4-(4-((6S,8R)-7-(2,2-difluoroethyl)-8-methyl-6,7,8,9-tetrahydro-3H-pyrazolo[4,3-f]isoquinolin-6-yl)-3,5-difluorophenyl)piperidine-1-carbonyl)cyclohexyl)-2-(2,6-dioxopiperidin-3-yl)-6,7-dihydropyrrolo[3,4-f]isoindole-1,3(2H,5H)-dione]
12 | > 100 nM | C[C@@H]1Cc2c(ccc3[nH]ncc23)[C@@H](c2c(F)cc(C3CCN(C(=O)[C@H]4CC[C@@H](N5Cc6cc7c(cc6C5)C(=O)N(C5CCC(=O)NC5=O)C7=O)CC4)CC3)cc2F)N1CC(F)F (stereo partly drawn) [Compound B8, 6-((1R,4s)-4-(4-(4-((6S,8R)-7-(2,2-difluoroethyl)-8-methyl-6,7,8,9-tetrahydro-3H-pyrazolo[4,3-f]isoquinolin-6-yl)-3,5-difluorophenyl)piperidine-1-carbonyl)cyclohexyl)-2-(2,6-dioxopiperidin-3-yl)-6,7-dihydropyrrolo[3,4-f]isoindole-1,3(2H,5H)-dione]
13 | < 10 nM | C[C@@H]1Cc2c(ccc3[nH]ncc23)[C@@H](c2c(F)cc(N3CC4(CCN(C(=O)CN5Cc6cc7c(cc6C5)C(=O)N(C5CCC(=O)NC5=O)C7=O)CC4)C3)cc2F)N1CC(F)F (stereo partly drawn) [Compound B13, 6-(2-(2-(4-((6S,8R)-7-(2,2-difluoroethyl)-8-methyl-6,7,8,9-tetrahydro-3H-pyrazolo[4,3-f]isoquinolin-6-yl)-3,5-difluorophenyl)-2,7-diazaspiro[3.5]nonan-7-yl)-2-oxoethyl)-2-(2,6-dioxopiperidin-3-yl)-6,7-dihydropyrrolo[3,4-f]isoindole-1,3(2H,5H)-dione]
